Data published in patent publication US20250281554A1, “COMPOSITION FOR IMPROVING DRUG SENSITIVITY OF ANTIBACTERIAL DRUG TO METHICILLIN-RESISTANT STAPHYLOCOCCUS AUREUS (MRSA), COMPOSITION FOR TREATING OR PREVENTING MRSA INFECTION, AND COMPOSITION FOR REDUCING VIRULENCE OF MRSA” (priority 2021, published 2025).
Values after ≈ are worked out from the molar mass of the structure shown.

Key:
Format in all cases: cell-based, methicillin-resistant Staphylococcus aureus
[1] = system: wild-type strain (MRSA2007-13 strain); experiment: drug sensitivity test (disk method), wild-type strain; conditions: MRSA2007-13 WT, 37° C., 24 hours; for drug sensitivity rating (disk method), WT: Mueller-Hinton II agar; for diameter of inhibitory zone, WT: number in brackets; on drug sensitivity rating (disk method), WT: key: resistance (R); sensitivity(S)
Procedure: (§1) The drug sensitivities of a wild-type strain (MRSA2007-13 strain) and a mutant (SAm1-201) to β-lactam antibacterial drugs were measured in a drug sensitivity test (disk method). The test method will be explained. The wild-type strain (MRSA2007-13 strain) or the mutant (SAm1-201) was streaked on LB-Agar, and cultured at 37° C. overnight. The following day, single colonies were collected, added to 5 mL of Trypticase soy broth, and subjected to shaking culture at 37° C. overnight. After culturing, the bacterial solution was adjusted to McFarland turbidity No. 0.5, and evenly smeared on Mueller-Hinton II agar medium with a sterile cotton swab. After disposing sensitivity disks on the agar medium, culture was performed at 37° C. for 24 hours, and the diameter of an inhibitory zone formed around each disk was measured in millimeters.

[2] = system: mutant (SAm1-201) of MRSA2007-13; experiment: drug sensitivity test (disk method), mutant SAm1-201; conditions: MRSA2007-13 SAm1-201, 37° C., 24 hours; for drug sensitivity rating (disk method), SAm1-201: Mueller-Hinton II agar; for diameter of inhibitory zone, SAm1-201: number in brackets; on drug sensitivity rating (disk method), SAm1-201: key: resistance (R); sensitivity(S)
Procedure: as §1

[3] = system: wild-type strain (MRSA2007-13 strain); experiment: drug sensitivity test (MIC method), wild-type strain; conditions: MRSA2007-13 WT; for MIC, WT: dry plate, cultured 20 hours, in µg/mL (unit assumed); on drug sensitivity rating (MIC method), WT: key: resistance (R); sensitivity(S)
Procedure: (§2) Next, the drug sensitivities of a wild-type strain (MRSA2007-13 strain) and mutated strains having a mutation in both mgrA and femA (SAm1-201, SAm1-206, SAm1-210) to antibacterial drugs were measured in a drug sensitivity test (MIC method). The test method will be explained. A bacterial solution (a wild-type strain or a mutant) precultured overnight was diluted with sterile physiological saline to reach OD600≈0.26, and 25 μL of the bacterial solution was added to 12 mL of Mueller-Hinton liquid medium (Eiken Chemical Co., Ltd.). To each well of a dry plate (Eiken Chemical Co., Ltd.), […] of the bacterial solution was added, and cultured for 20 hours. After culturing, the MIC was determined based on determination criteria for the dry plate.

[4] = system: MRSA2007-13 SAm1-201 (mgrA mutation and femA mutation); experiment: drug sensitivity test (MIC method), SAm1-201; conditions: for MIC, SAm1-201: dry plate, cultured 20 hours
Procedure: as §2

[5] = system: MRSA2007-13 SAm1-206 (mgrA mutation and femA mutation); experiment: drug sensitivity test (MIC method), SAm1-206; conditions: dry plate, cultured 20 hours, unit assumed
Procedure: as §2

[6] = system: MRSA2007-13 SAm1-210 (mgrA mutation and femA mutation); experiment: drug sensitivity test (MIC method), SAm1-210; conditions: dry plate, cultured 20 hours, unit assumed
Procedure: as §2

[7] = system: wild-type strain (MRSA2007-13 strain); experiment: growth-inhibitory effect of phage and oxacillin added from the beginning, turbidimetry; conditions: WT MRSA, ϕSA012 ≈1.0×10^7 pfu/mL (MOI≈0.1), oxacillin sodium 16 μg/mL, 37° C.
Procedure: The test method is shown in the following. This test was performed by means of turbidimetry. A bacterial solution (wild-type strain (MRSA2007-13 strain)) precultured overnight was diluted with LB-Broth to reach OD600≈1.0, and further 10-fold diluted (˜ 1.0×10^8 cfu/mL).
The plate was set in a Sunrise Rainbow Thermo RC (Tecan Japan Co., Ltd.), and shaking culture was performed at 37° C. for 90 hours while absorbance values at a wavelength of 590 nm were measured every 15 minutes.

Compound	drug sensitivity rating (disk method), WT [1]	drug sensitivity rating (disk method), SAm1-201 [2]	diameter of inhibitory zone, SAm1-201 [2] [millimeters]	diameter of inhibitory zone, WT [1] [millimeters]	MIC, WT [3]	MIC, SAm1-201 [4]	MIC, SAm1-206 [5] [µg/mL]	MIC, SAm1-210 [6] [µg/mL]	MIC, SAm1-201 ([4]; unit assumed) [µg/mL]	bacterial growth inhibition (turbidity) over 90 hours [7]	drug sensitivity rating (MIC method), WT ([3]; symbol in brackets)	drug sensitivity rating (MIC method), SAm1-201 ([4]; symbol in brackets)
COCC1=C(C(=O)O)N2C(=O)[C@@H](NC(=O)/C(=N\OC)c3csc(N)n3)[C@H]2SC1 [CPDX, cefpodoxime]	R	S	28									
C[C@@H](O)[C@H]1C(=O)N2C(C(=O)O)=C(SCCN=CN)C[C@H]12 [IPM, imipenem]	R	S	44	9	64	0.125>	1 (≈ 3.34 µM)	0.125 (≈ 0.418 µM)				
CN(C)[C@@H]1C(O)=C(C(N)=O)C(=O)[C@@]2(O)C(O)=C3C(=O)c4c(O)cccc4[C@@](C)(O)[C@H]3[C@H](O)[C@@H]12 [OTC, oxytetracycline]					128		128 (≈ 278 µM)	128 (≈ 278 µM)	64 (≈ 139 µM)			
CCN1CCN(c2cc3c(cc2F)c(=O)c(C(=O)O)cn3C2CC2)CC1 [ERFX, enrofloxacin]					128		64 (≈ 178 µM)	32 (≈ 89 µM)	64 (≈ 178 µM)			
penicillin [PCG]					>16		2	4	2			
CO/N=C(\C(=O)N[C@@H]1C(=O)N2C(C(=O)O)=C(/C=C\c3scnc3C)CS[C@H]12)c1csc(N)n1 [CDTR, cefditoren]					>2		< 0.5	< 0.5	< 0.5			
Cc1onc(-c2ccccc2)c1C(=O)N[C@@H]1C(=O)N2[C@@H]1SC(C)(C)[C@@H]2C(=O)O [MPIPC, oxacillin]	R	S	35				4 (≈ 9.96 µM)	0.125 (≈ 0.311 µM)	0.125 (≈ 0.311 µM)	failed in inhibiting bacterial growth		
C[C@@H](O)[C@H]1C(=O)N2C(C(=O)O)=C([C@H]3CCCO3)S[C@H]12 [FRPM, faropenem]	R	S	≥ 50		>128	0.125>	0.25 (≈ 0.876 µM)	0.125 (≈ 0.438 µM)				
CC1(C)S[C@@H]2[C@H](NC(=O)[C@H](N)c3ccc(O)cc3)C(=O)N2[C@H]1C(=O)O [AMPC, amoxicillin]	R	S	34		64		16 (≈ 43.8 µM)	2 (≈ 5.47 µM)	8 (≈ 21.9 µM)			
CC1=C(C(=O)O)N2C(=O)[C@@H](NC(=O)[C@H](N)c3ccccc3)[C@H]2SC1 [CEX, cephalexin]	R	S	29									
Cc1nnc(SCC2=C(C(=O)O)N3C(=O)[C@@H](NC(=O)Cn4cnnn4)[C@H]3SC2)s1 [CEZ, cefazolin]					>128		1 (≈ 2.2 µM)	0.25 (≈ 0.55 µM)			(R)	(S)
CC/C=C(\C(=O)N[C@@H]1C(=O)N2C(C(=O)O)=C(COC(N)=O)CS[C@H]12)c1csc(N)n1 [CFPN, cefcapene]					>2		< 0.5	< 0.5	< 0.5			
C[C@@H](O)[C@H]1C(=O)N2C(C(=O)O)=C(S[C@@H]3CN[C@H](C(=O)N(C)C)C3)[C@H](C)[C@H]12 [MEPE, meropenem]	R	S	28	7	32	0.125>	4 (≈ 10.4 µM)	0.125 (≈ 0.326 µM)				
C[C@H]1c2cccc(O)c2C(=O)C2=C(O)[C@]3(O)C(=O)C(C(N)=O)=C(O)[C@@H](N(C)C)[C@@H]3[C@@H](O)[C@@H]21 [DOXY, doxycycline]					8		8 (≈ 18 µM)	4 (≈ 9 µM)	4 (≈ 9 µM)			
